The target of test [1] is T1, AR (Rattus norvegicus, UniProt P15207).
T1 sequence (P15207 1-902): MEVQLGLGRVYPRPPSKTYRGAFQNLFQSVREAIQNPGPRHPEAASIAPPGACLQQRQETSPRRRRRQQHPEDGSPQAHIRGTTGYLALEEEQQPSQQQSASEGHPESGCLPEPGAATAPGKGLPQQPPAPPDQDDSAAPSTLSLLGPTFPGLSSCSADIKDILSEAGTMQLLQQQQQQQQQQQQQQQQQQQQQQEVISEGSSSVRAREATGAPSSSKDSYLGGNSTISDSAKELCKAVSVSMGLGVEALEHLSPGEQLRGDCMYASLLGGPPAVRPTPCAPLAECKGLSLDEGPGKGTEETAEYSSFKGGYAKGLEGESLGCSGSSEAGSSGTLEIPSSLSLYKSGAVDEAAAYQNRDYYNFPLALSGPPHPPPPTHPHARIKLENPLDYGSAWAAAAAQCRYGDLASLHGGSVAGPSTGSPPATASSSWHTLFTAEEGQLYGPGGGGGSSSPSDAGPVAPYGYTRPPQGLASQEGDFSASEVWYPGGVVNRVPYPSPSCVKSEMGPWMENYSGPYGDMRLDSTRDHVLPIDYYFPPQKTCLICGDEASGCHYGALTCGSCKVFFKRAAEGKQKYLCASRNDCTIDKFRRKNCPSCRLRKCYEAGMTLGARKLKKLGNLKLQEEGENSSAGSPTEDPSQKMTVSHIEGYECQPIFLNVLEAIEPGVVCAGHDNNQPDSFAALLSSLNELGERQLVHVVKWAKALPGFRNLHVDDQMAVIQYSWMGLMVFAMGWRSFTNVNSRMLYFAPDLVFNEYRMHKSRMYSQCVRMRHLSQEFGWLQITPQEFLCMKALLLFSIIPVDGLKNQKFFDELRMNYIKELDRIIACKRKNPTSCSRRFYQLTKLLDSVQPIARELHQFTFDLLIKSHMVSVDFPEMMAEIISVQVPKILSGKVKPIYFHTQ

Test [2] addresses T1, AR. The note with it: castrated rats. The source says: The activity of compounds of the present invention as AR agonists was investigated in an immature male rat model, a recognized test of anabolic effects in muscle and sustaining effects in sex organs for a given compound, as described in L. G. Hershberger et al., Proc. Soc. […] Yak. Ken. Nem.
The basis of this assay lies in the well-defined action of androgenic agents on the maintenance and growth of muscle tissues and sexual accessory organs in animals and man. […] J. Anat. […] Ital. Biol. Sper. […] II. […] Ital. Biol. Sper. […] As described above, the effects of androgens on maintenance of male sexual accessory organs, such as the prostate and seminal vesicles, is well described. Castration results in rapid involution and atrophy of the prostate and seminal vesicles. This effect can be reversed by exogenous addition of androgens. Since both the levator ani muscle and the male sex organs are the tissues most responsive to the effects of androgenic agents, this model is used to determine the androgen dependent reversal of atrophy in the levator ani muscle and the sex accessory organs in immature castrated rats. Sexually mature rats (200-250 g, 6-8 weeks-old, Sprague-Dawley, Harlan) were acquired castrated from the vendor (Taconic). The rats were divided into groups and treated daily for 7 to 14 days with one of the following: • 1. Control vehicle • 2. […]

For test [3], the target named is wild type AR. Conditions: read-out: Kd for [^3H]-DHT; MDA 453 cells, saturation analysis, Scatchard. Here is the method:
For the saturation analysis, the difference between the total binding and the non-specific binding, was defined as specific binding.
Two replicates were used for each sample. After 4 hours at 37° C., cells were washed, harvested and counted as described above. […] The KI, values were determined by application of the Cheng-Prusoff equation to the IC50 values, where:
[formula] After correcting for non-specific binding, IC50 values were determined. […]

Where two headings read alike, the source gives them in different places.

As to `CCC(=O)O[C@H]1CC[C@H]2[C@@H]3CCC4=CC(=O)CC[C@]4(C)[C@H]3CC[C@]12C` [TP, testosterone propionate], the ED80 in test [1] (immature castrated rat model) amounted to 0.1 mg. Moreover, the “EC50 (increase in organ weight)” value in test [1] (immature castrated rats, 3 days dosing) is given as roughly 0.03 mg; in test [2] (3 days dosing) it was roughly 0.03 mg. Also, the “higher potency than free T” value in test [1] (organ weight increase, immature castrated rats) was 10-30 fold; in test [2] (organ weight increase), 10-30 fold.
The Kd is the equilibrium constant for the complex coming apart. With “tritiated dihydrotestosterone [[^3H]-DHT]”, in test [3], the dissociation constant (Kd) amounted to 0.7 nM.

The values are drawn from US7342034B2, “Fused heterocyclic compounds and analogs thereof, modulators of nuclear hormone receptor function” (Bristol-Myers Squibb Company, priority 2001, dated 2008).
